Experimental data published in patent US10874683B2, “N4-hydroxycytidine and derivatives and anti-viral uses related thereto” (Emory University, priority 2016, dated 2020).
In brackets after ≈: the same amount, converted by molar mass. Where two headings read alike, the source gives them in different places.

Legend:
SARS Coronavirus Orbani = test: microbe, parasite or virus in culture; format: cell-based; conditions: Severe acute respiratory syndrome coronavirus, Vero 76
in vitro = conditions: African green monkey
Chikungunya virus = Chikungunya virus (MOI 0.5) viral inhibition in U2OS cell line; format: cell-based; conditions: for inhibition at 10 µM: read-out: Viral Inh. 10 uM; for inhibition at 50 µM: read-out: Viral Inh. 50 uM
U2OS cell line = test: Cell viability, U2OS cell line (Chikungunya screen)
VEEV [1] = test: microbe, parasite or virus in culture; format: cell-based; conditions: Venezuelan equine encephalitis virus, HeLa; for inhibition at 10 µM: read-out: Viral Inh. 10 uM; for inhibition at 50 µM: read-out: Viral Inh. 50 uM
VEEV [2] = test: microbe, parasite or virus in culture; format: cell-based; conditions: Venezuelan equine encephalitis virus, Astrocyte; for inhibition at 10 µM: read-out: Viral Inh. 10 uM; for inhibition at 50 µM: read-out: Viral Inh. 50 uM
MERV = MERV (MOI 0.4) viral inhibition in VERO; format: cell-based; conditions: for inhibition at 10 µM: read-out: Viral Inh. 10 uM; for inhibition at 50 µM: read-out: Viral Inh. 50 uM
VERO = test: Cell viability, VERO (MERV screen); format: cell-based
Norovirus GT1 = Norovirus GT1 antiviral screening in HG23 cells; format: cell-based
[3] = Cytotoxicity in HG23 cells (Norovirus screen); format: cell-based; conditions: human

Question: For `CONc1ccn([C@@H]2O[C@H](CO)[C@H](O)C2O)c(=O)n1` (stereo partly drawn), which EC50 (SARS Coronavirus Orbani) is on record?
Answer: > 100 µg/mL

Question: What about the CC50 (in vitro) of the same compound?
Answer: > 100 µg/mL

Question: Which results are given for `CCCCCCCNC(=O)ONc1ccn([C@@H]2O[C@H](CO)[C@H](O)C2O)c(=O)n1` (stereo partly drawn) [drawing 85]?
Answer: inhibition at 10 µM (Chikungunya virus): 14%; inhibition at 50 µM (Chikungunya virus): 70%; Cell Viability 10 uM (U2OS cell line): 105% ± 2% (n = 4); Cell Viability 50 uM (U2OS cell line): 96% ± 11% (n = 4)

Question: Which results are given for `CCCCCCCOC(=O)ONc1ccn([C@@H]2O[C@H](CO)[C@H](O)C2O)c(=O)n1` (stereo partly drawn) [drawing 87]?
Answer: EC50 (VEEV [1]): 0.57 µM; inhibition at 10 µM (VEEV [1]): 100%; inhibition at 50 µM (VEEV [1]): 100%; Cell Viability 10 uM (HeLa): 116% ± 20% (n = 4); Cell Viability 50 uM (HeLa): 85% ± 8% (n = 4)

Question: What does the source list for `O=c1nc(NO)ccn1[C@@H]1O[C@H](CO)[C@H](O)C1O` (stereo partly drawn) [drawing 81]?
Answer: inhibition at 10 µM (Chikungunya virus): 80%; inhibition at 50 µM (Chikungunya virus): 100%; Cell Viability 10 uM (U2OS cell line): 97% ± 5% (n = 4); Cell Viability 50 uM (U2OS cell line): 79% ± 10% (n = 4)

Question: Which results are given for `CC(C)OC(=O)[C@H](C)NP(=O)(OC[C@H]1O[C@@H](n2ccc(NO)nc2=O)C(O)[C@H]1O)Oc1ccccc1` (stereo partly drawn) [drawing 83]?
Answer: inhibition at 10 µM (Chikungunya virus): 3%; inhibition at 50 µM (Chikungunya virus): 36%; Cell Viability 10 uM (U2OS cell line): 99% ± 6% (n = 4); Cell Viability 50 uM (U2OS cell line): 99% ± 8% (n = 4)

Question: With `CCCCCCCOC(=O)ONc1ccn([C@@H]2O[C@H](CO)[C@H](O)C2O)c(=O)n1` (stereo partly drawn) [drawing 78] as the compound, how does the EC50 (SARS Coronavirus Orbani) read?
Answer: 0.28 µg/mL (≈ 0.698 µM)

Question: And the CC50 (in vitro)?
Answer: > 100 µg/mL

Question: What does the source list for `CCCCCCCNC(=O)ONc1ccn([C@@H]2O[C@H](CO)[C@H](O)C2O)c(=O)n1` (stereo partly drawn) [drawing 95]?
Answer: inhibition at 10 µM (VEEV [2]): 51%; inhibition at 50 µM (VEEV [2]): 37%; Cell Viability 10 uM (Astrocytes): 98% ± 12% (n = 3); Cell Viability 50 uM (Astrocytes): 85% ± 19% (n = 3)

Question: For `CCCCCCCOC(=O)ONc1ccn([C@@H]2O[C@H](CO)[C@H](O)C2O)c(=O)n1` (stereo partly drawn) [drawing 97], which inhibition at 10 µM (MERV) is on record?
Answer: 99%

Question: And the inhibition at 50 µM (MERV)?
Answer: 99%

Question: And the “Cell Viability 10 uM” value (VERO)?
Answer: 84% ± 8% (n = 4)

Question: And the “Cell Viability 50 uM” value (VERO)?
Answer: 58% ± 2% (n = 4)

Question: With `CCCCCCCOC(=O)ONc1ccn([C@@H]2O[C@H](CO)[C@H](O)C2O)c(=O)n1` (stereo partly drawn) [drawing 82] as the compound, how does the inhibition at 10 µM (Chikungunya virus) read?
Answer: 72%

Question: And the inhibition at 50 µM (Chikungunya virus)?
Answer: 98%

Question: And the “Cell Viability 10 uM” value (U2OS cell line)?
Answer: 93% ± 4% (n = 4)

Question: And the “Cell Viability 50 uM” value (U2OS cell line)?
Answer: 78% ± 8% (n = 4)

Question: With `CCCCCCCNC(=O)ONc1ccn([C@@H]2O[C@H](CO)[C@H](O)C2O)c(=O)n1` (stereo partly drawn) [drawing 90] as the compound, how does the EC50 (VEEV [1]) read?
Answer: 6 µM

Question: And the inhibition at 10 µM (VEEV [1])?
Answer: 93%

Question: What about the inhibition at 50 µM (VEEV [1]) of the same compound?
Answer: 100%

Question: What about the “Cell Viability 10 uM” value (HeLa) of the same compound?
Answer: 151% ± 16% (n = 4)

Question: And the “Cell Viability 50 uM” value (HeLa)?
Answer: 126% ± 7% (n = 4)

Question: With `O=c1nc(NO)c(F)cn1[C@@H]1O[C@H](CO)[C@H](O)C1O` (stereo partly drawn) [drawing 84] as the compound, how does the inhibition at 10 µM (Chikungunya virus) read?
Answer: 8%

Question: And the inhibition at 50 µM (Chikungunya virus)?
Answer: 51%

Question: What about the “Cell Viability 10 uM” value (U2OS cell line) of the same compound?
Answer: 81% ± 4% (n = 4)

Question: What about the “Cell Viability 50 uM” value (U2OS cell line) of the same compound?
Answer: 53% ± 2% (n = 4)

Question: For `CCCCCCCNC(=O)ONc1ccn([C@@H]2O[C@H](CO)[C@H](O)C2O)c(=O)n1` (stereo partly drawn) [drawing 100], which inhibition at 10 µM (MERV) is on record?
Answer: 86%

Question: What about the inhibition at 50 µM (MERV) of the same compound?
Answer: 98%

Question: And the “Cell Viability 10 uM” value (VERO)?
Answer: 118% ± 15% (n = 4)

Question: And the “Cell Viability 50 uM” value (VERO)?
Answer: 91% ± 39% (n = 4)

Question: Which results are given for `O=c1nc(NO)ccn1[C@@H]1O[C@H](CO)[C@H](O)C1O` (stereo partly drawn) [drawing 91]?
Answer: inhibition at 10 µM (VEEV [2]): 99%; inhibition at 50 µM (VEEV [2]): 100%; Cell Viability 10 uM (Astrocytes): 98% ± 12% (n = 3); Cell Viability 50 uM (Astrocytes): 86% ± 5% (n = 3)

Question: For `O=c1nc(NO)c(F)cn1[C@@H]1O[C@H](CO)[C@H](O)C1O` (stereo partly drawn) [drawing 89], which inhibition at 10 µM (VEEV [1]) is on record?
Answer: 61%

Question: What about the inhibition at 50 µM (VEEV [1]) of the same compound?
Answer: 98%

Question: What about the “Cell Viability 10 uM” value (HeLa) of the same compound?
Answer: 55% ± 4% (n = 4)

Question: And the “Cell Viability 50 uM” value (HeLa)?
Answer: 36% ± 2% (n = 4)

Question: Which EC50 (Norovirus GT1) does the source give for `CC1(O)[C@@H](O)[C@@H](CO)O[C@H]1n1ccc(NO)nc1=O` (stereo partly drawn) here?
Answer: > 100 µg/mL

Question: What about the CC50 [3] of the same compound?
Answer: > 100 µg/mL

Question: What about the EC50 (SARS Coronavirus Orbani) of the same compound?
Answer: > 100 µg/mL

Question: And the CC50 (in vitro)?
Answer: > 100 µg/mL

Question: What does the source list for `CC(C)OC(=O)[C@H](C)NP(=O)(OC[C@H]1O[C@@H](n2ccc(NO)nc2=O)C(O)[C@H]1O)Oc1ccccc1` (stereo partly drawn) [drawing 93]?
Answer: inhibition at 10 µM (VEEV [2]): 49%; inhibition at 50 µM (VEEV [2]): 96%; Cell Viability 10 uM (Astrocytes): 102% ± 16% (n = 3); Cell Viability 50 uM (Astrocytes): 100% ± 17% (n = 3)

Question: Which results are given for `O=c1nc(NO)ccn1[C@@H]1O[C@H](CO)[C@H](O)C1O` (stereo partly drawn) [drawing 96]?
Answer: inhibition at 10 µM (MERV): 99%; inhibition at 50 µM (MERV): 100%; Cell Viability 10 uM (VERO): 75% ± 6% (n = 4); Cell Viability 50 uM (VERO): 47% ± 3% (n = 4)

Question: For `CCCCCCCCC(=O)ONc1ccn([C@@H]2O[C@H](CO)[C@H](O)C2O)c(=O)n1` (stereo partly drawn), which EC50 (SARS Coronavirus Orbani) is on record?
Answer: 0.19 µg/mL (≈ 0.476 µM)

Question: And the CC50 (in vitro)?
Answer: 36 µg/mL (≈ 90.1 µM)

Question: With `O=c1nc(NO)ccn1[C@@H]1O[C@H](CO)[C@H](O)C1O` (stereo partly drawn) [drawing 86] as the compound, how does the EC50 (VEEV [1]) read?
Answer: 1.24 µM

Question: What about the inhibition at 10 µM (VEEV [1]) of the same compound?
Answer: 100%

Question: What about the inhibition at 50 µM (VEEV [1]) of the same compound?
Answer: 100%

Question: What about the “Cell Viability 10 uM” value (HeLa) of the same compound?
Answer: 116% ± 24% (n = 4)

Question: What about the “Cell Viability 50 uM” value (HeLa) of the same compound?
Answer: 61% ± 8% (n = 4)

Question: With `CC(C)OC(=O)[C@H](C)NP(=O)(OC[C@H]1O[C@@H](n2ccc(NO)nc2=O)C(O)[C@H]1O)Oc1ccccc1` (stereo partly drawn) [drawing 88] as the compound, how does the EC50 (VEEV [1]) read?
Answer: 16.2 µM

Question: What about the inhibition at 10 µM (VEEV [1]) of the same compound?
Answer: 73%

Question: What about the inhibition at 50 µM (VEEV [1]) of the same compound?
Answer: 100%

Question: What about the “Cell Viability 10 uM” value (HeLa) of the same compound?
Answer: 137% ± 16% (n = 4)

Question: And the “Cell Viability 50 uM” value (HeLa)?
Answer: 134% ± 16% (n = 4)

Question: Which inhibition at 10 µM (VEEV [2]) does the source give for `CCCCCCCOC(=O)ONc1ccn([C@@H]2O[C@H](CO)[C@H](O)C2O)c(=O)n1` (stereo partly drawn) [drawing 92] here?
Answer: 94%

Question: And the inhibition at 50 µM (VEEV [2])?
Answer: 100%

Question: What about the “Cell Viability 10 uM” value (Astrocytes) of the same compound?
Answer: 99% ± 9% (n = 3)

Question: What about the “Cell Viability 50 uM” value (Astrocytes) of the same compound?
Answer: 94% ± 10% (n = 3)

Question: With `O=c1nc(NO)ccn1[C@@H]1O[C@H](CO)[C@H](O)C1O` (stereo partly drawn) [drawing 76] as the compound, how does the EC50 (Norovirus GT1) read?
Answer: > 100 µg/mL

Question: What about the CC50 [3] of the same compound?
Answer: > 100 µg/mL

Question: What about the EC50 (SARS Coronavirus Orbani) of the same compound?
Answer: < 0.1 µg/mL

Question: What about the CC50 (in vitro) of the same compound?
Answer: 36 µg/mL (≈ 139 µM)

Question: Which inhibition at 10 µM (MERV) does the source give for `CC(C)OC(=O)[C@H](C)NP(=O)(OC[C@H]1O[C@@H](n2ccc(NO)nc2=O)C(O)[C@H]1O)Oc1ccccc1` (stereo partly drawn) [drawing 98] here?
Answer: 29%

Question: What about the inhibition at 50 µM (MERV) of the same compound?
Answer: 85%

Question: What about the “Cell Viability 10 uM” value (VERO) of the same compound?
Answer: 103% ± 14% (n = 4)

Question: And the “Cell Viability 50 uM” value (VERO)?
Answer: 102% ± 36% (n = 4)
